These compounds were tested against T1, human ferroportin (Homo sapiens, UniProt Q9NP59) (assay: ferroportin internalization assay (inhibition of hepcidin-induced internalization of Fpn)). Conditions: MDCK-FPN-HaloTag cells, 100 nM hepcidin, overnight incubation; concentration range from 0.04 to 40 μM.
T1 construct: expressed in transfected cells
T1 sequence (Q9NP59 1-571): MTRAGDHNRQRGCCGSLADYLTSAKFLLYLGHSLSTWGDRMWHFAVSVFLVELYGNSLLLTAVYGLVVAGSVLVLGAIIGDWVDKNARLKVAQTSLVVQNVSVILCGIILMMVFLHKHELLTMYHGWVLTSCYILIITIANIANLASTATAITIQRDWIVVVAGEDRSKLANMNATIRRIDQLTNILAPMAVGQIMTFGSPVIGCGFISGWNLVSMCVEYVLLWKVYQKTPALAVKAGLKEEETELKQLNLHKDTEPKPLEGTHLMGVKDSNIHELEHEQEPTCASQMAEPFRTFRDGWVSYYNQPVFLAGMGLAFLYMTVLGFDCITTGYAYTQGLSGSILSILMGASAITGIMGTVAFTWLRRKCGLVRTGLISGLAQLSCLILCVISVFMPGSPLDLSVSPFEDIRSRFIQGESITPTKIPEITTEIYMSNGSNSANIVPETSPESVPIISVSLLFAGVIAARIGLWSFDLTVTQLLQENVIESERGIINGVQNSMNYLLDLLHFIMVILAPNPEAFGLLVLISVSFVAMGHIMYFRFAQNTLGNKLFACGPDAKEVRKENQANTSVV
Assay type: cell-based
Description: The hepcidin-antagonistic action of the sulfonaminoquinoline compounds of the present invention was determined by means of the “ferroportin internalization assay” described in the following.
Organic compounds of low molecular weight which counteract the biological actions of hepcidin on its receptor, the iron exporter ferroportin (Fpn), were identified on the basis of their ability to inhibit hepcidin-induced internalization of Fpn in living cells. For this purpose, a stable cell line (Madin-Darby canine kidney, MDCK) was produced which constitutively expresses human ferroportin fused recombinantly at its C terminus with a fluorescent reporter protein (HaloTag®, Promega Corp.). The internalization of Fpn was monitored by labelling these cells with fluorescent ligands (HaloTag®-TMR, tetramethylrhodamine) which join covalently on to the HaloTag reporter gene fused with the Fpn. […] Optimized image analysis algorithms were used to ascertain the cell surface and to quantify the corresponding membrane fluorescence associated with the Fpn-HaloTag fusion protein. This assay allows a quantitative image-based analysis in order to quickly evaluate compounds which can block hepcidin-induced internalization of Fpn. This assay is a direct in vitro pendant of the in vivo action mechanism proposed for medicament candidates and is therefore suitable as an initial assay with a high throughput for identifying compounds which counteract the action of hepcidin on its receptor ferroportin.
• 7,500 cells per well (MDCK-FPN-HaloTag) were transinoculated in 50 μl of DMEM medium (Dulbeccos Modified Eagle Medium with 10% foetal bovine serum (FBS), which contained 1% penicillin, 1% streptomycin and 450 μg/ml of G-418) in microtitre plates with 384 wells (384 Cell carrier plates, Perkin Elmer, cat. no. 6007430), followed by incubation overnight at 37° C./5% CO2. • The volume of the medium was reduced to 10 μl, and 10 μl of 5 μM HaloTag-TMR ligands (Promega, cat. no. G 8251) were added in DMEM medium in order to stain the Fpn-HaloTag fusion protein. • 15 min incubation at 37° C./5% CO2 • The HaloTag-TMR ligand was removed and the cells were washed with fresh DMEM medium and the volume was reduced to 20 μl of DMEM medium. • 3 μl per well of a solution of the test compound (dissolved DMSO) were added ([…]). • 7 μl of […] hepcidin (Peptides International, cat. no. PLP-4392-s, 100 μM stock solution diluted in water in DMEM medium) were added per well up to a final hepcidin concentration of 100 nM. • The cells were incubated overnight at 37° C./5% CO2. • The cells were fixed by adding paraformaldehyde (PFA, Electron Microscopy Sciences, cat. no. 15710-S) directly to the cells up to a final concentration of 4%, followed by incubation at room temperature for 15-20 minutes. • The PFA solution was removed and the cells were washed with PBS (phosphate-buffered saline solution), in each case 30 μl remaining in the plate. • 20 μl of Draq5 (Biostatus, cat. no. DR 51000) were added up to a final concentration of 2.5 μM in order to stain the cell nuclei, and the plates were sealed with a foil plate seal. • The plates were analysed with the Opera Plate Imager (Opera Confocal Plate Imager, Perkin Elmer) with 7 images per well; 440 ms exposure time per image, […] focal point height.

SMILES | IC50 [nM]
Cc1ccc(S(=O)(=O)Nc2cccc3cccnc23)nc1 [Example 227, 5-Methyl-pyridine-2-sulfonic acid quinolin-8-ylamide] | 380
Cc1cccc(S(=O)(=O)Nc2cccc3cccnc23)n1 [Example 228, 6-Methyl-pyridine-2-sulfonic acid quinolin-8-ylamide] | 15400
O=S(=O)(Nc1cccc2cccnc12)c1cncc(C(F)(F)F)c1 [Example 229, 5-Trifluoromethyl-pyridine-3-sulfonic acid quinolin-8-ylamide] | 3980
O=S(=O)(Nc1cccc2cccnc12)c1cnccn1 [Example 230, Pyrazine-2-sulfonic acid quinolin-8-ylamide] | 1910
O=S(=O)(Nc1cccc2cccnc12)c1nccs1 [Example 231, Thiazole-2-sulfonic acid quinolin-8-ylamide] | 4580
O=S(=O)(Nc1cc(OC(F)(F)F)cc2cccnc12)c1ccc(C(F)(F)F)nc1 [Example 232, 6-Trifluoromethyl-pyridine-3-sulfonic acid (6-trifluoromethoxy-quinolin-8-yl)-amide] | 12500
O=S(=O)(Nc1ccc(C(F)(F)F)c2cccnc12)c1ccccn1 [Example 234, Pyridine-2-sulfonic acid (5-trifluoromethyl-quinolin-8-yl)-amide] | 460
O=S(=O)(Nc1cc(OC(F)(F)F)cc2cccnc12)c1ccccn1 [Example 235, Pyridine-2-sulfonic acid (6-trifluoromethoxy-quinolin-8-yl)-amide] | 1090
O=S(=O)(Nc1cc(F)cc2cccnc12)c1ccccn1 [Example 236, Pyridine-2-sulfonic acid (6-fluoro-quinolin-8-yl)-amide] | 2370
O=S(=O)(Nc1cc(OC(F)(F)F)cc2cccnc12)c1cccnc1 [Example 237, Pyridine-3-sulfonic acid (6-trifluoromethoxy-quinolin-8-yl)-amide] | 3840
N#Cc1ccc(S(=O)(=O)Nc2cc(OC(F)(F)F)cc3cccnc23)cn1 [Example 238, 6-Cyano-pyridine-3-sulfonic acid (6-trifluoromethoxy-quinolin-8-yl)-amide] | 2110
N#Cc1ccc(S(=O)(=O)Nc2cc(F)cc3cccnc23)cn1 [Example 239, 6-Cyano-pyridine-3-sulfonic acid (6-fluoro-quinolin-8-yl)-amide] | 3750
N#Cc1ccc(S(=O)(=O)Nc2ccc(C(F)(F)F)c3cccnc23)cn1 [Example 240, 6-Cyano-pyridine-3-sulfonic acid (5-trifluoromethyl-quinolin-8-yl)-amide] | 2600
O=S1(=O)Nc2c(ccc3c(Cl)ccnc23)-c2ccccc21 [Example 305, 1-Chloro-5H-6-thia-4,5-diaza-chrysene 6,6-dioxide] | 12500
O=S1(=O)Nc2c(cc(F)c3cccnc23)-c2cc(C(F)(F)F)ccc21 [Example 306, 12-Fluoro-9-trifluoromethyl-5H-6-thia-4,5-diaza-chrysene 6,6-dioxide] | 4190
COC(=O)c1ccc2c(c1)-c1ccc3cccnc3c1NS2(=O)=O [Example 307, 6,6-Dioxo-5,6-dihydro-6λ*6*-thia-4,5-diaza-chrysene-9-carboxylic acid methyl ester] | 4180
N#Cc1ccc2c(c1)-c1ccc3cccnc3c1NS2(=O)=O [Example 308, 6,6-Dioxo-5,6-dihydro-6λ*6*-thia-4,5-diaza-chrysene-9-carbonitrile] | 2830
O=S1(=O)Nc2c(cc(C(F)(F)F)c3cccnc23)-c2ccccc21 [Example 311, 12-Trifluoromethyl-5H-6-thia-4,5-diaza-chrysene 6,6-dioxide] | 14100

SMILES | IC50 [nM]
O=S1(=O)Nc2c(cc(C(F)(F)F)c3cccnc23)-c2cc(Cl)ccc21 [Example 312, 9-Chloro-12-trifluoromethyl-5H-6-thia-4,5-diaza-chrysene 6,6-dioxide] | 8510
O=S1(=O)Nc2c(ccc3cccnc23)-c2cccnc21 [Example 318, 11H-12-Thia-1,10,11-triaza-chrysene 12,12-dioxide] | 6150
COC(=O)c1ccnc2c3c(ccc12)-c1ccccc1S(=O)(=O)N3 [Example 319, 6,6-Dioxo-5,6-dihydro-6λ*6*-thia-4,5-diaza-chrysene-1-carboxylic acid methyl ester] | 2940
O=S1(=O)Nc2c(c(F)cc3cccnc23)-c2ccccc21 [Example 323, 11-Fluoro-5H-6-thia-4,5-diaza-chrysene 6,6-dioxide] | 3570
O=S1(=O)Nc2c(cc(F)c3cccnc23)-c2ccccc21 [Example 324, 12-Fluoro-5H-6-thia-4,5-diaza-chrysene 6,6-dioxide] | 1390
O=S1(=O)Nc2c(ccc3cccnc23)-c2cc(Cl)ccc21 [Example 325, 9-Chloro-5H-6-thia-4,5-diaza-chrysene 6,6-dioxide] | 770
COc1ccc2c(c1)S(=O)(=O)Nc1c-2ccc2cccnc12 [Example 326, 8-Methoxy-5H-6-thia-4,5-diaza-chrysene 6,6-dioxide] | 2110
Cc1ccc2c(c1)-c1ccc3cccnc3c1NS2(=O)=O [Example 327, 9-Methyl-5H-6-thia-4,5-diaza-chrysene 6,6-dioxide] | 3200
O=S1(=O)Nc2c(cc(Cl)c3cccnc23)-c2ccccc21 [Example 328, 12-Chloro-5H-6-thia-4,5-diaza-chrysene 6,6-dioxide] | 320
Cc1ccc2c(c1)S(=O)(=O)Nc1c-2ccc2cccnc12 [Example 329, 8-Methyl-5H-6-thia-4,5-diaza-chrysene 6,6-dioxide] | 360
O=S1(=O)Nc2c(ccc3cccnc23)-c2ccc(F)cc21 [Example 330, 8-Fluoro-5H-6-thia-4,5-diaza-chrysene 6,6-dioxide] | 1620
Cc1cc2c(cc1F)-c1ccc3cccnc3c1NS2(=O)=O [Example 331, 9-Fluoro-8-methyl-5H-6-thia-4,5-diaza-chrysene 6,6-dioxide] | 3240
O=S1(=O)Nc2c(ccc3cccnc23)-c2ccc(C(F)(F)F)cc21 [Example 332, 8-Trifluoromethyl-5H-6-thia-4,5-diaza-chrysene 6,6-dioxide] | 2340
O=S1(=O)Nc2c(ccc3cccnc23)-c2cc(OC(F)(F)F)ccc21 [Example 333, 9-Trifluoromethoxy-5H-6-thia-4,5-diaza-chrysene 6,6-dioxide] | 1170
O=S1(=O)Nc2c(cc(Cl)c3cccnc23)-c2cc(C(F)(F)F)ccc21 [Example 334, 12-Chloro-9-trifluoromethyl-5H-6-thia-4,5-diaza-chrysene 6,6-dioxide] | 6250
Cc1cccc2c1S(=O)(=O)Nc1c-2ccc2cccnc12 [Example 335, 7-Methyl-5H-6-thia-4,5-diaza-chrysene 6,6-dioxide] | 3880
CN1C(c2ccc(F)cc2)c2ccc3cccnc3c2NS1(=O)=O (centres unmarked) [Example 382, 1-(4-Fluoro-phenyl)-2-methyl-1,4-dihydro-2H-3-thia-2,4,5-triaza-phenanthrene 3,3-dioxide] | 340

— patent US9102688B2, “Sulfonaminoquinoline hepcidin antagonists” (Vifor (International) AG, priority 2011, dated 2015)
